Measurements taken from patent US7615361B2, “Toxicity screening methods” (Ceetox, Inc., priority 2006, dated 2009).

What was measured:
[1] = test system: NRK cells; assay: Predicted Ctox from Tox-Panel; assay type: cell-based, rat
Protocol: Studies such as these indicate that a preferred concentration for setting Ctox is the highest concentration at which there is no observed effect on any of the indicators being measured in the cluster analysis, especially a 24-hour cluster analysis. […] It will be apparent that 24 hour assays are more time-effective, and consequently, the 24 hour NOEL/Ctox represents a preferred data point to select as Ctox in a CATS assay. It will also be apparent that, with further time studies, it may be possible to select an equally suitable Ctox at other CATS assay time points (e.g., between 24 and 72 hours, or less than 24 hours).
In certain embodiments, the predicting comprises performing concentration response analyses of measurements from at least three separate assays that are employed in the cluster analysis. For example, in the cell health cluster, such predicting will involve monitoring the concentration response effect of the compound on a first health indicator which monitors cellular replication, a second cell health indicator which monitors mitochondrial function, and a third cell health indicator which monitors membrane integrity. Of course, it is understood that fourth, fifth, sixth or more cell health indicators also may be employed. From these concentration response analyses, the highest concentration of the chemical compound at which a measurable toxic effect of the chemical compound is not observable, i.e. NOEL, is determined and the Ctox is identified as the concentration that correlates to the NOEL. In choosing the concentrations of the compound for analysis, one of skill in the art should devise a dose response regimen which is selected to provide an indication of cell health at concentrations of at least two concentration values higher than the Ctox concentration.
The third experiment was done to evaluate the specificity and selectivity of the test compound in another non-tumor cell that was derived from normal rat kidney tissue. In this experiment the test compound has no effect on cell number of acute cell death up to the 500 dilution after 6 and 24 hr of exposure (FIG. 76C and 77C). Significant effects were observed on mitochondrial markers at dilutions that dropped pH to 3.7. The bar graph in FIG. 82 summarizes these effects. […] In contrast the rat tumor cell line was sensitive to the test compound and cell death occurred at the 500 dilution and could not be attributed to low pH.

[2] = Intracellular total glutathione (GSH); conditions: human
Protocol: (§1) Intracellular Glutathione (GSH) Levels: Intracellular glutathione levels were determined essentially as described by Griffith (1980) with modifications. At the end of the exposure period, the medium was removed from the cells and metaphosphoric acid (MPA) was added to each well. Plates were then shaken for 5 min at room temperature and stored at −20° C. until needed.
(§2) The sample plates were thawed just prior to analysis and centrifuged at >2000×g for at least 2 min. Sample aliquots were removed and transferred to a clean 96-well plate along with appropriate standard curve controls. Sample pH was neutralized just prior to analysis and each well received an aliquot of sodium phosphate reaction buffer containing EDTA, DTNB, NADPH, and glutathione reductase. The plates were mixed for 15-30 min at room temperature and glutathione content was determined calorimetrically with a Packard Fusion or equivalent reader at 415 nm.
(§3) Intracellular Glutathione (GSH) Levels: The assay is based on the concept that all GSH is oxidized to GSSG by DTNB reagent. Two molecules of GSH are required to make one molecule of GSSG. Total GSH was determined by reducing GSSG to 2GSH with glutathione reductase. A standard curve was prepared with oxidized glutathione (GSSG) over a range of concentrations. These concentrations are then converted to glutathione equivalents (GSX) essentially by multiplying the GSSG standard concentrations by 2. The amount of GSX expressed as pmoles/well was determined using the standard curve and regression analysis.
(§4) The test compound consisted of two parts mixed in a constant ratio of 5:1. The final test mixture consisted of Test mix 1 and Test mix 2, which were received as frozen solutions. The test mixture was tested in a ratio of 5:1 COMP A in five different cell types which included the following: SK-MEL28, human hepatocytes, HUVEC, C32, and NHEM cells. Cells were seeded into 96-well plates and cultured in medium containing 10% bovine serum. Following an equilibration period of 48 hr, the cells were treated with the test compound mix at concentrations of COMP A (μg/mL)=(250:50), (125:25), (25:12.5), (12.5:2.5), (2.5:1.25), (1.25:0.25), and (0.25:0.05) for 24 hr (overnight) at 37° C. in 5% CO2. […] Following an equilibration period of 4 hr, the cells were treated with the test compound mix at concentrations of COMP A (μg/mL)=(250:50), (125:25), (25:12.5), (12.5:2.5), (2.5:1.25), (1.25:0.25), and (0.25:0.05) for 24 hr (overnight) at 37° C. in 5% CO2.
(§5) Experimental Protocol: The test compounds were shipped on dry ice for testing. The compounds were stored frozen at −80° C. until needed. Dosing solutions were prepared in complete culture medium. SK-MEL28, human hepatocytes, HUVEC, C32, and NHEM cells were used as the test systems. Cells were seeded into 96-well plates and allowed to equilibrate for approximately 48 hr. Following the equilibration period the cells were exposed to the test compound mix at concentrations of COMP A (μg/mL)=(250:50), (125:25), (25:12.5), (12.5:2.5), (2.5:1.25), (1.25:0.25), and (0.25:0.05). […] Following the exposure period, the cells or their supernatant (culture medium) were analyzed for changes in cell proliferation, membrane leakage, mitochondrial function, oxidative stress, and apoptosis. The resultant exposure concentration response curves were graphed and analyzed for determining the concentration that produced a half maximal response or TC50.

[3] = test system: SK-MEL28 cells; assay: Intracellular total glutathione (GSH)
Protocol: as §1, §2, §3, §4, §5

[4] = molecular target: P-glycoprotein (PgP) (Homo sapiens, UniProt P08183); assay: P-glycoprotein (PgP) binding: MTT with and without cyclosporin A, HUVEC; assay type: cell-based; set-up: SK-MEL28, human hepatocytes, HUVEC, C32, and NHEM cells were used as the test systems; endogenous in cells; conditions: HUVEC 24 HR; for % Control (Compound + CSA): with cyclosporin A; for % Control (Compound): without CSA
[5] = SK-MEL28, 24 HR, COMP A (LOW) / controls #2
[6] = SK-MEL28, 72 HR, COMP A (LOW) / controls #2

Chain of P-glycoprotein (PgP) (P08183 whole entry): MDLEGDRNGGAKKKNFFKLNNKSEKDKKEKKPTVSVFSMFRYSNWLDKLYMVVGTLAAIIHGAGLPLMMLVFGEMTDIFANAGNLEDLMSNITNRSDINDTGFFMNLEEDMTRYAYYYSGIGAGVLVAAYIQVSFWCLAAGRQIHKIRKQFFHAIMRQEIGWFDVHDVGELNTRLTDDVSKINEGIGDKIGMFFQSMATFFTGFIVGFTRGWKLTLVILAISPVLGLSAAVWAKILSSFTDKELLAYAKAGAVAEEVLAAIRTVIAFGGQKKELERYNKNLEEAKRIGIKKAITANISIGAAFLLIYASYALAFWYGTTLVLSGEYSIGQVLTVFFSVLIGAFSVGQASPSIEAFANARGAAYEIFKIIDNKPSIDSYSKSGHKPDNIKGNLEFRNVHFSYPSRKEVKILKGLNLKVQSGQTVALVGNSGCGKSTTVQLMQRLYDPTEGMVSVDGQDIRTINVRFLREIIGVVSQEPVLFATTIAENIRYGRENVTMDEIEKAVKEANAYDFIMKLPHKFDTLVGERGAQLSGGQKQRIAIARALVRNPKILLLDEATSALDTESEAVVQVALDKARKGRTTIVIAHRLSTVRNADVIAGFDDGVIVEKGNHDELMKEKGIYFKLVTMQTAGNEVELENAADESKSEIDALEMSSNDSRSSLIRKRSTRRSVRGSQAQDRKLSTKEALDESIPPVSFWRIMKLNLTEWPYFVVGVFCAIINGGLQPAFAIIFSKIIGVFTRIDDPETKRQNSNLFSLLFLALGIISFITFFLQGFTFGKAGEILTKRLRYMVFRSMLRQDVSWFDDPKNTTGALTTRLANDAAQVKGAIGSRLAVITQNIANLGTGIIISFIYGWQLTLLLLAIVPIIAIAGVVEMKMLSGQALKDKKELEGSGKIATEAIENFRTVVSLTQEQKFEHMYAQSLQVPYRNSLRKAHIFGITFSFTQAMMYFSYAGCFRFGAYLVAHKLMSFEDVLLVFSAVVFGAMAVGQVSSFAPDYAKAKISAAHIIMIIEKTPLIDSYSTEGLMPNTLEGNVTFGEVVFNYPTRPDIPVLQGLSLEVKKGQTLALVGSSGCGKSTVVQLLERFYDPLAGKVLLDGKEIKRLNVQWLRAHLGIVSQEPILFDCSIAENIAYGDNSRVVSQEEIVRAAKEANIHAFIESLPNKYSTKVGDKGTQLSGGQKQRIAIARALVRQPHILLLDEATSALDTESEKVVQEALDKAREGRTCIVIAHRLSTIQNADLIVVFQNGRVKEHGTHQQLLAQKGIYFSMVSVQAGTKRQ

SMILES | Predicted Ctox ([1]; 6 HR) [µM] | Predicted Ctox ([1]; 24 HR) [µM] | CC50 at 72 h [2] [nM] | Percent Change in Total GSH ([3]; SK-MEL28, 24 HR) [%] | Percent Change in Total GSH [3, 5] [%] | Percent Change in Total GSH [3, 6] [%] | % Control (Compound + CSA) [4] [%] | % Control (Compound) [4] [%] | CC50 at 24 h ([2]; SK-MEL28 cells) [nM] | CC50 at 72 h ([2]; SK-MEL28 cells) [nM]
C=C(C)[C@H]1Cc2c(ccc3c2O[C@@H]2COc4cc(OC)c(OC)cc4[C@@H]2C3=O)O1 [ROTENONE, Rotenone] | 1 | 1 | 100 | 52.8 | 49.9 | 85.1 | 77.8 | 75.4 |  | 
CC[C@@]1(O)C(=O)OCc2c1cc1n(c2=O)Cc2cc3ccccc3nc2-1 [CAMPTOTHECIN, Camptothecin] | 0.1 | 0.1 |  | −46.0 | −57.9 | −88.8 | 18.0 | 29.4 | 10000 | 100
